Source: the supplement of paper PMC11208160

assay: recombinant UMI read abundance after kanamycin selection (control-corrected) (log10(CPM+1)); higher = more efficient recombination; extreme values may be limits of the assay; sequences stand for … in AGTGCAGAGAAAATCGGCCAGTTTTCTCTGCCTGCAGTCCGCATGCCGTGGGACCCCTTGGGTTCTAACCTGTTGCCTAGATTTATGCAGCGGACTGCCTTTCTCCCAAAGTGATAAACCGG…AGGTTGGTTTCACT; site = the 11-nt donor
How it was run: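 Two replicates each of selected and unselected plating were used in this pooled Escherichia coli screen of donor and donor-binding-loop pairs for the IS621 bridge recombinase. Selection was with IPTG (0.07 mM) and kanamycin. Counts of recombinant UMIs, amplified across the donor–target junction, were converted to CPM, averaged, scaled by control-derived factors and reported as log10(CPM+1).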
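Note: IS621 bridge recombinase in Escherichia coli cells against a fixed T5 target plasmid.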

Sequence | recombinant UMI read abundance (log10)
CTGCTAACATGGACCGGTTTTCCCGGTAATCCGTATTTGGA (site CTACTAACTTC) | 1.16
CTGCTAACATGGACCGGTTTTCCCGGTAATCCGTATTTGGA (site CTCCTAACTTC) | 0.394
CTGCTAACATGGACCGGTTTTCCCGGTAATCCGTATTTGGA (site CTGCTAACTTC) | 1.62
CTGCTAACATGGACCGGTTTTCCCGGTAATCCGTATTTGGA (site CTTCTAACTTC) | 0.563
CTGCTCACATGGACCGGTTTTCCCGGTAATCCGTATTTGCC (site CTGCTCACTGG) | 2.59
CTGGAGTCATGGACCGGTTTTCCCGGTAATCCGTATTTGCC (site CAGGAGTCTGG) | 2.88
CTGGAGTCATGGACCGGTTTTCCCGGTAATCCGTATTTGCC (site CCGGAGTCTGG) | 1.26
CTGGAGTCATGGACCGGTTTTCCCGGTAATCCGTATTTGCC (site CGGGAGTCTGG) | 0
CTGGAGTCATGGACCGGTTTTCCCGGTAATCCGTATTTGCC (site CTGGAGTCTGG) | 2.84
CTGGCATCATGGACCGGTTTTCCCGGTAATCCGTATTTGAC (site CTAGTATCTGT) | 0
CTGGCATCATGGACCGGTTTTCCCGGTAATCCGTATTTGAC (site CTGGCATCTGT) | 1.53
CTGGCTCCATGGACCGGTTTTCCCGGTAATCCGTATTTGGC (site CTGGCTCCTGC) | 0.763
CTGGCTGCATGGACCGGTTTTCCCGGTAATCCGTATTTGGT (site CTGGCTGCTAC) | 1.7
CTGGGCACATGGACCGGTTTTCCCGGTAATCCGTATTTGAG (site CTGGGCACTCT) | 0.567
CTGGTAGCATGGACCGGTTTTCCCGGTAATCCGTATTTGAC (site CTAGTATCTGT) | 1.68
CTGGTAGCATGGACCGGTTTTCCCGGTAATCCGTATTTGAC (site CTGGTAGCTGT) | 2.85
CTGGTGGCATGGACCGGTTTTCCCGGTAATCCGTATTTGTT (site CTGGTGGCTAA) | 0.723
CTGGTTTCATGGACCGGTTTTCCCGGTAATCCGTATTTGAC (site CTAGTATCTGT) | 0.542
CTGGTTTCATGGACCGGTTTTCCCGGTAATCCGTATTTGAC (site CTGGTTTCTGT) | 1.87
CTGTAATCATGGACCGGTTTTCCCGGTAATCCGTATTTGTG (site CTGTAATCTCA) | 2.52
CTGTACACATGGACCGGTTTTCCCGGTAATCCGTATTTGCT (site CTATACACTAG) | 2.55
CTGTACACATGGACCGGTTTTCCCGGTAATCCGTATTTGCT (site CTCTACACTAG) | 1.52
CTGTACACATGGACCGGTTTTCCCGGTAATCCGTATTTGCT (site CTGTACACTAG) | 2.51
CTGTACACATGGACCGGTTTTCCCGGTAATCCGTATTTGCT (site CTTTACACTAG) | 0.828
CTGTACGCATGGACCGGTTTTCCCGGTAATCCGTATTTGTC (site CTGTACGCTGA) | 2.56

Sequence | recombinant UMI read abundance (log10)
CTGTCGCCATGGACCGGTTTTCCCGGTAATCCGTATTTGCA (site CTGTCGCCTTG) | 0
CTGTCGTCATGGACCGGTTTTCCCGGTAATCCGTATTTGTG (site CTGTCGTCTCA) | 0.831
CTGTGACCATGGACCGGTTTTCCCGGTAATCCGTATTTGTA (site CTGTGACCTTA) | 0.00405
CTGTGCCCATGGACCGGTTTTCCCGGTAATCCGTATTTGAG (site CTGTGCCCTCT) | 0.0219
CTGTGCCCATGGACCGGTTTTCCCGGTAATCCGTATTTGCC (site CTGTGCCCTGG) | 1.34
CTGTTAGCATGGACCGGTTTTCCCGGTAATCCGTATTTGTG (site CAGTTAGCTCA) | 0.669
CTGTTAGCATGGACCGGTTTTCCCGGTAATCCGTATTTGTG (site CCGTTAGCTCA) | 0.102
CTGTTAGCATGGACCGGTTTTCCCGGTAATCCGTATTTGTG (site CGGTTAGCTCA) | 0.0126
CTGTTAGCATGGACCGGTTTTCCCGGTAATCCGTATTTGTG (site CTGTTAGCTCA) | 2.07
CTGTTCGCATGGACCGGTTTTCCCGGTAATCCGTATTTGTA (site CTGTTCGCTTA) | 2.09
CTGTTGCCATGGACCGGTTTTCCCGGTAATCCGTATTTGAC (site CTGTTGCCTGT) | 0
CTTAAAGCATGGACCGGTTTTCCCGGTAATCCGTATTTGAT (site CATAAAGCTAT) | 0
CTTAAAGCATGGACCGGTTTTCCCGGTAATCCGTATTTGAT (site CCTAAAGCTAT) | 0
CTTAAAGCATGGACCGGTTTTCCCGGTAATCCGTATTTGAT (site CGTAAAGCTAT) | 0
CTTAAAGCATGGACCGGTTTTCCCGGTAATCCGTATTTGAT (site CTTAAAGCTAT) | 1.08
CTTAATACATGGACCGGTTTTCCCGGTAATCCGTATTTGGC (site CATAATACTGC) | 0.00796
CTTAATACATGGACCGGTTTTCCCGGTAATCCGTATTTGGC (site CCTAATACTGC) | 0
CTTAATACATGGACCGGTTTTCCCGGTAATCCGTATTTGGC (site CGTAATACTGC) | 0.0463
CTTAATACATGGACCGGTTTTCCCGGTAATCCGTATTTGGC (site CTTAATACTGC) | 0
CTTACGGCATGGACCGGTTTTCCCGGTAATCCGTATTTGAT (site CTTACGGCTAT) | 1.44
CTTACTACATGGACCGGTTTTCCCGGTAATCCGTATTTGGC (site CTTACTACTGC) | 0.688
CTTAGAACATGGACCGGTTTTCCCGGTAATCCGTATTTGGC (site ATTAGAACTGC) | 0
CTTAGAACATGGACCGGTTTTCCCGGTAATCCGTATTTGGC (site CTTAGAACTGC) | 1.4
CTTAGAACATGGACCGGTTTTCCCGGTAATCCGTATTTGGC (site GTTAGAACTGC) | 0.016
CTTAGAACATGGACCGGTTTTCCCGGTAATCCGTATTTGGC (site TTTAGAACTGC) | 0

Sequence | recombinant UMI read abundance (log10)
CTTCAATCATGGACCGGTTTTCCCGGTAATCCGTATTTGGA (site CTTCAATCTTC) | 1.71
CTTCACTCATGGACCGGTTTTCCCGGTAATCCGTATTTGTA (site CTTCACTCTTA) | 1.73
CTTCACTCATGGACCGGTTTTCCCGGTAATCCGTATTTGTA (site CTTCCCTCTTA) | 0.00659
CTTCACTCATGGACCGGTTTTCCCGGTAATCCGTATTTGTA (site CTTCGCTCTTA) | 0.00683
CTTCACTCATGGACCGGTTTTCCCGGTAATCCGTATTTGTA (site CTTCTCTCTTA) | 0
CTTCAGTCATGGACCGGTTTTCCCGGTAATCCGTATTTGGC (site CTTCAGTCTGC) | 0.339
CTTCATACATGGACCGGTTTTCCCGGTAATCCGTATTTGTT (site CTTCATACTAA) | 1.32
CTTCCCTCATGGACCGGTTTTCCCGGTAATCCGTATTTGTG (site CTTCCCTCTCA) | 0.257
CTTCCTACATGGACCGGTTTTCCCGGTAATCCGTATTTGTA (site CTTCCTACTTA) | 0.451
CTTCGCACATGGACCGGTTTTCCCGGTAATCCGTATTTGAA (site CTTCGCACTTT) | 0.375
CTTCTCTCATGGACCGGTTTTCCCGGTAATCCGTATTTGTA (site ATTCTCTCTTA) | 0.402
CTTCTCTCATGGACCGGTTTTCCCGGTAATCCGTATTTGTA (site CATCTCTCTTA) | 0.954
CTTCTCTCATGGACCGGTTTTCCCGGTAATCCGTATTTGTA (site CCTCTCTCTTA) | 0.823
CTTCTCTCATGGACCGGTTTTCCCGGTAATCCGTATTTGTA (site CGTCTCTCTTA) | 1.35
CTTCTCTCATGGACCGGTTTTCCCGGTAATCCGTATTTGTA (site CTACTCTCTTA) | 0.967
CTTCTCTCATGGACCGGTTTTCCCGGTAATCCGTATTTGTA (site CTCCTCTCTTA) | 1.89
CTTCTCTCATGGACCGGTTTTCCCGGTAATCCGTATTTGTA (site CTGCTCTCTTA) | 0.693
CTTCTCTCATGGACCGGTTTTCCCGGTAATCCGTATTTGTA (site CTTATCTCTTA) | 0.00276
CTTCTCTCATGGACCGGTTTTCCCGGTAATCCGTATTTGTA (site CTTCACTCTTA) | 0
CTTCTCTCATGGACCGGTTTTCCCGGTAATCCGTATTTGTA (site CTTCCCTCTTA) | 0.181
CTTCTCTCATGGACCGGTTTTCCCGGTAATCCGTATTTGTA (site CTTCGCTCTTA) | 0.00811
CTTCTCTCATGGACCGGTTTTCCCGGTAATCCGTATTTGTA (site CTTCTATCTTA) | 0.394
CTTCTCTCATGGACCGGTTTTCCCGGTAATCCGTATTTGTA (site CTTCTCACTTA) | 0.0108
CTTCTCTCATGGACCGGTTTTCCCGGTAATCCGTATTTGTA (site CTTCTCCCTTA) | 0.207
CTTCTCTCATGGACCGGTTTTCCCGGTAATCCGTATTTGTA (site CTTCTCGCTTA) | 0.0131
